Experimental data as given in patent US20230013602A1, “NOVEL IMIDAZOPYRAZINE DERIVATIVES” (Hoffmann-La Roche Inc., priority 2018, published 2023).
Counter-ions that a name gives are not always drawn.

Each molecule was assayed on Acinetobacter baumannii ATCC 17978 (assay: Antimicrobial susceptibility testing, 90% growth inhibitory concentration (IC90) determination). Conditions: Acinetobacter baumannii ATCC17978, Iso-Sensitest broth, OD 600 nm over 16 h.
Assay type: cell-based
Protocol: (§1) The in vitro antimicrobial activity of the compounds was determined according to the following procedure:
(§2) The assay used a 10-points Iso-Sensitest broth medium to measure quantitatively the in vitro activity of the compounds against Acinetobacter baumannii ATCC 17978 and Acinetobacter baumannii ATCC17961.
(§3) Stock compounds in DMSO were serially twofold diluted (e.g. range from 50 to 0.097 μM final concentration) in 384 wells microtiter plates and inoculated with 49 μl the bacterial suspension in Iso-Sensitest medium to have a final cell concentration of ˜5×10^(5) CFU/ml in a final volume/well of 50 ul/well. Microtiter plates were incubated at 35+2° C.
(§4) Bacterial cell growth was determined with the measurement of optical density at X=600 nm each 20 minutes over a time course of 16 h. Growth inhibition was calculated during the logarithmic growth of the bacterial cells with determination of the concentration inhibiting 50% (IC50) and 90% (IC90) of the growth.
(§5) Table 1 provides the 90% growth inhibitory concentrations (IC90) in micromoles per liter of the compounds of present invention obtained against the strain Acinetobacter baumannii ATCC17978 and Acinetobacter baumannii ATCC17961.

SMILES | IC90 [nM]
COc1ccc(-c2cnc3c(Nc4ccc(C(=O)NC5CCN(C)CC5)c(C)c4)nccn23)cc1 [Example 1, 4-((3-(4-methoxyphenyl)imidazo[1,2-a]pyrazin-8-yl)amino)-2-methyl-N-(1-methylpiperidin-4-yl)benzamide] | 2200
Cc1cc(Nc2nccn3c(-c4ccc(OC(F)F)cc4)cnc23)ccc1C(=O)NC1CN2CCC1CC2 (centres unmarked) [Example 2, 4-((3-(4-(difluoromethoxy)phenyl)imidazo[1,2-a]pyrazin-8-yl)amino)-2-methyl-N-(quinuclidin-3-yl)benzamide] | 3200
CCc1cc(Nc2nccn3c(-c4ccc(OC)c(F)c4F)cnc23)ccc1C(=O)N[C@@H]1CCNC1 [Example 3, (R)-4-((3-(2,3-difluoro-4-methoxyphenyl)imidazo[1,2-a]pyrazin-8-yl)amino)-2-ethyl-N-(pyrrolidin-3-yl)benzamide hydrochloride] | 260
COc1ccc(-c2cnc3c(Nc4ccc(C(=O)NC5COC(CN)OC5)c(C)c4)nccn23)cc1 (centres unmarked) [Example 7, N-(2-(aminomethyl)-1,3-dioxan-5-yl)-4-((3-(4-methoxyphenyl)imidazo [1,2-a]pyrazin-8-yl)amino)-2-methylbenzamide] | 540
COc1ccc(-c2cnc3c(Nc4ccc(C(=O)N(C)C5CCN(C)CC5)c(C)c4)nccn23)cc1 [Example 15, 4-[[3-(4-methoxyphenyl)imidazo[1,2-a]pyrazin-8-yl]amino]-N,2-dimethyl-N-(1-methylpiperidin-4-yl)benzamide] | 5300
COc1ccc(-c2cnc3c(Nc4ccc(C(=O)N(C)C5CCN(C)CC5)cc4)nccn23)cc1 [Example 16, 4-[[3-(4-methoxyphenyl)imidazo[1,2-a]pyrazin-8-yl]amino]-N-methyl-N-(1-methylpiperidin-4-yl)benzamide] | 5900
COc1ccc(-c2cnc3c(Nc4ccc(C(=O)N(C)[C@@H]5CNC[C@H]5O)c(C)c4)nccn23)cc1F [Example 17, 4-[[3-(3-fluoro-4-methoxyphenyl)imidazo[1,2-a]pyrazin-8-yl]amino]-N-[(3R,4R)-4-hydroxypyrrolidin-3-yl]-N,2-dimethylbenzamide;hydrochloride] | 2600
COc1ccc(-c2cnc3c(Nc4ccc(C(=O)N(C)C5CCNCC5)c(Cl)c4)nccn23)cc1F [Example 20, 2-chloro-4-[[3-(3-fluoro-4-methoxyphenyl)imidazo[1,2-a]pyrazin-8-yl]amino]-N-methyl-N-piperidin-4-ylbenzamide;hydrochloride] | 820
COc1ccc(-c2cnc3c(Nc4ccc(C(=O)N(C)C5CCNCC5)c(C)c4)nccn23)cc1F [Example 21, 4-[[3-(3-fluoro-4-methoxyphenyl)imidazo[1,2-a]pyrazin-8-yl]amino]-N, 2-dimethyl-N-piperidin-4-ylbenzamide;hydrochloride] | 1100
Cc1cc(Nc2nccn3c(-c4ccc(OC(F)F)c(F)c4)cnc23)ccc1C(=O)N(C)C1CCNCC1 [Example 22, 4-[[3-[4-(difluoromethoxy)-3-fluorophenyl]imidazo[1,2-a]pyrazin-8-yI]amino]-N,2-dimethyl-N-piperidin-4-ylbenzamide;hydrochloride] | 1300
Cc1cc(Nc2nccn3c(-c4ccc(OC(F)F)cc4)cnc23)ccc1C(=O)N[C@H]1[C@@H](O)[C@H](O)[C@@H](CO)O[C@@H]1O [Example 23, 4-[[3-[4-(difluoromethoxy)phenyl]imidazo[1,2-a]pyrazin-8-yl]amino]-2-methyl-N-[(2S,3S,4R,5S,6R)-2,4,5-trihydroxy-6-(hydroxymethyl)oxan-3-yl]benzamide] | 8000
COc1ccc(-c2cnc3c(Nc4ccc(C(=O)NC5CCN(C6CCS(=O)(=O)CC6)CC5)c(C)c4)nccn23)cc1F [Example 24, N-[1-(1,1-dioxothian-4-yl)piperidin-4-yl]-4-[[3-(3-fluoro-4-methoxyphenyl)imidazo[1,2-a]pyrazin-8-yl]amino]-2-methylbenzamide] | 600
COc1ccc(-c2cnc3c(Nc4ccc(C(=O)Nc5ccc(C(=O)O)cc5)c(C)c4)nccn23)cc1F [Example 25, 4-[[4-[[3-(3-fluoro-4-methoxyphenyl)imidazo[1,2-a]pyrazin-8-yl]amino]-2-methylbenzoyl]amino] benzoic acid] | 1500
COc1ccc(-c2cnc3c(Nc4ccc(C(=O)N[C@H]5CCNC[C@H]5F)c(C)c4)nccn23)cc1F [Example 26, 4-[[3-(3-fluoro-4-methoxyphenyl)imidazo[1,2-a]pyrazin-8-yl]amino]-N-[(3R,4S)-3-fluoropiperidin-4-yl]-2-methylbenzamide;2,2,2-trifluoroacetic acid] | 2700
CCc1cc(Nc2nccn3c(-c4ccc(OC)c(F)c4F)cnc23)ccc1C(=O)NC1(CO)COC1 [Example 27, 4-[[3-(2,3-difluoro-4-methoxyphenyl)imidazo[1,2-a]pyrazin-8-yl]amino]-2-ethyl-N-[3-(hydroxymethyl)oxetan-3-yl]benzamide] | 180
CCc1cc(Nc2nccn3c(-c4ccc(OC)c(F)c4F)cnc23)ccc1C(=O)N[C@H]1CCNC1 [Example 28, 4-[[3-(2,3-difluoro-4-methoxyphenyl)imidazo[1,2-a]pyrazin-8-yl]amino]-2-ethyl-N-[(3S)-pyrrolidin-3-yl]benzamide;hydrochloride] | 370
CCc1cc(Nc2nccn3c(-c4ccc(OC(F)F)c(F)c4F)cnc23)ccc1C(=O)NC1(CN)CC1 [Example 29, N-[1-(aminomethyl)cyclopropyl]-4-[[3-[4-(difluoromethoxy)-2,3-difluorophenyl]imidazo[1,2-a]pyrazin-8-yl]amino]-2-ethylbenzamide;hydrochloride] | 710

The molecules below were run on Acinetobacter baumannii ATCC17961 in the same assay as above. Conditions: 90% growth inhibitory concentration, Acinetobacter baumannii ATCC17961, Iso-Sensitest broth, OD 600 nm over 16 h; read-out: ATCC17961 IC90.
Assay type: cell-based
Protocol: as §1, §2, §3, §4, §5

SMILES | IC90 [nM]
COc1ccc(-c2cnc3c(Nc4ccc(C(=O)N[C@H]5CC[C@H](NC(=O)[C@@H]6C[C@@H](O)CN6)CC5)c(C)c4)nccn23)c(F)c1F [Example 62, (2S,4R)-N-((1r,4S)-4-(4-((3-(2,3-difluoro-4-methoxyphenyl)imidazo[1,2-a]pyrazin-8-yl)amino)-2-methylbenzamido)cyclohexyI)-4-hydroxypyrrolidine-2-carboxamide] | 268
COc1ccc(-c2cnc3c(Nc4ccc(C(=O)N[C@@H]5CCN(C(=O)[C@@H]6C[C@@H](O)CN6)C5)c(C)c4)nccn23)c(F)c1F [Example 63] | 55
COc1ccc(-c2cnc3c(Nc4ccc(C(=O)N[C@H]5CCN(C(=O)[C@@H]6C[C@@H](O)CN6)C5)c(C)c4)nccn23)c(F)c1F [Example 64, 4-((3-(2,3-difluoro-4-methoxyphenyl)imidazo[1,2-a]pyrazin-8-yl)amino)-N-((S)-1-((2S,4R)-4-hydroxypyrrolidine-2-carbonyI)pyrrolidin-3-yl)-2-methylbenzamide] | 81
COc1ccc(-c2cnc3c(Nc4ccc(C(=O)NC5CN(C(=O)[C@@H]6C[C@@H](O)CN6)C5)c(C)c4)nccn23)c(F)c1F [Example 65, 4-((3-(2,3-difluoro-4-methoxyphenyl)imidazo[1,2-a]pyrazin-8-yl)amino)-N-(1-((2S,4R)-4-hydroxypyrrolidine-2-carbonyl)azetidin-3-yl)-2-methylbenzamide] | 47
COc1ccc(-c2cnc3c(Nc4ccc(C(=O)N[C@H]5C[C@@H](NC(=O)[C@@H]6C[C@@H](O)CN6)C5)c(C)c4)nccn23)c(F)c1F [Example 66, (2S,4R)-N-((1s,3R)-3-(4-((3-(2,3-difluoro-4-methoxyphenyl)imidazo[1,2-a]pyrazin-8-yl)amino)-2-methylbenzamido)cyclobutyl)-4-hydroxypyrrolidine-2-carboxamide] | 40
COc1ccc(-c2cnc3c(Nc4ccc(C(=O)N[C@H]5C[C@H](NC(=O)[C@@H]6C[C@@H](O)CN6)C5)c(C)c4)nccn23)c(F)c1F [Example 67, (2S,4R)-N-((1r,3 S)-3-(4-((3-(2,3-difluoro-4-methoxyphenyl)imidazo[1,2-a]pyrazin-8-yl)amino)-2-methylbenzamido)cyclobutyl)-4-hydroxypyrrolidine-2-carboxamide] | 101
CCc1cc(Nc2nccn3c(-c4ccc(OC)c(F)c4F)cnc23)ccc1C(=O)NC12CC(NC(=O)[C@@H]3C[C@@H](O)CN3)(C1)C2 [Example 70, (2S,4R)-N-(3-(4-((3-(2,3-difluoro-4-methoxyphenyl)imidazo[1,2-a]pyrazin-8-yl)amino)-2-ethylbenzamido)bicyclo[1.1.1]pentan-1-yl)-4-hydroxypyrrolidine-2-carboxamide dihydrochloride] | 197
CCc1cc(Nc2nccn3c(-c4ccc(OC)c(F)c4F)cnc23)ccc1C(=O)N[C@@H]1CCC[C@@H]1N [Example 71, N-((1R,2S)-2-aminocyclopentyl)-4-((3-(2,3-difluoro-4-methoxyphenyl)imidazo[1,2-a]pyrazin-8-yl)amino)-2-ethylbenzamide dihydrochloride] | 712

Same assay, conditions: Acinetobacter baumannii, ATCC17961, 16 h, read-out: ATCC17961 IC90

SMILES | IC90 [nM]
CCc1cc(Nc2nccn3c(-c4ccc(OC)c(F)c4F)cnc23)ccc1C(=O)N[C@H]1[C@@H]2CNC[C@@H]21 [Example 72, rac-N-((1R,5 S,6s)-3-azabicyclo[3.1,0]hexan-6-yI)-4-((3-(2,3-difluoro-4-methoxyphenyl)imidazo[1,2-a]pyrazin-8-yl)amino)-2-ethylbenzamide hydrochloride] | 295
